Tests used:
[1] = tested on: cotton aphid (Aphis gossypii); experiment: Spray treatment of transgenic cotton (line DP444 BG/RR) populated by cotton aphid, kill in %, Colby synergy; format: in vivo; details: spirotetramate at 100 ppm by spray where applied
Text: (§1) This is based on the following calculation base and assumption (“Colby formula”): […]
(§2) If • X is the kill rate, expressed in % of the untreated and not transgenically modified control, when employing the active compound A at an application rate of m g/ha or at a concentration of m ppm, • Y is the kill rate, expressed in % of the untreated and not transgenically modified control, when using a transgenic plant and • E is the kill rate, expressed in % of the untreated and not transgenically modified control, when employing active compound A and using a transgenically modified plant, the application rate being m and n g/ha or the concentration being m and n ppm, then
(§3) If the actual kill rate (i.e. the activity observed) is higher than the calculated one, the combination of active compound treatment and transgenically modified plant is superadditive in its kill, i.e. a synergistic effect between the active compound treatment and the use of a transgenic plant is present. In this case, the actually observed kill rate must thus be higher than the value calculated using the formula above for the kill rate (E). […]
(§4) After a desired period of time, the kill in % is determined by counting the animals. […]

[2] = tested on: armyworm (Spodoptera frugiperda); experiment: Spray treatment of transgenic maize lines against armyworm, kill in %, Colby synergy; format: in vivo; details: spirotetramate at 100 ppm by spray where applied
Text: as §1, §2, §3, §4

[3] = tested on: armyworm (Spodoptera exigua); experiment: Spray treatment of transgenic maize lines against larvae of the armyworm, kill in %, Colby synergy; format: in vivo; details: spirotetramate at 100 ppm by spray where applied
Text: as §1, §2, §3, §4

Molecule	melting point	further results
CCOC(=O)OC1=C(c2cc(C)c(Cl)cc2C)C(=O)NC12CCC(OC)CC2 (stereo not drawn)	162 °C	–
COC1CCC2(CC1)NC(=O)C(c1c(C)ccc(Cl)c1C)=C2O (stereo not drawn)	219 °C	–
spirotetramate	–	Kill in % after 4d (observed) [1]: 35%; Kill in % after 1d (observed) ([2]; after 1 d): 0%; Kill in % after 4d (observed) ([2]; after 4 d): 60%; Kill in % after 4d (observed) [3]: 10%
COC1CCC2(CC1)NC(=O)C(c1c(C)ccc(Br)c1C)=C2O (stereo not drawn)	> 220 °C	–
COC1CCC2(CC1)NC(=O)C(c1c(C)cc(C)c(C)c1C)=C2O (stereo not drawn)	> 220 °C	–
COC1CCC2(CC1)NC(=O)C(c1cc(C)ccc1C)=C2O (stereo not drawn)	> 220 °C	–

Reference: US20100313310A1, “METHOD FOR IMPROVED UTILIZATION OF THE PRODUCTION POTENTIAL OF TRANSGENIC PLANTS” (priority 2006, published 2010)
